Experimental data published in patent US20240246920A1, “TRIAZOLE DERIVATIVES WITH ANTIFUNGAL ACTIVITY” (King's College London, priority 2020, published 2024).
≈ marks a conversion by molar mass, not a printed value. Like-named read-outs stand apart in the source and are kept apart here.

Experiments:
[1] = system: Aspergillus fumigatus ATCC 13073; experiment: Aspergillus panel MIC; format: cell-based; details: Table 8
Method: (§1) Starter cultures of fungal strains to be tested were grown in 3 mL of RPMI 2% glucose media incubated at 37° C. with shaking at 200 rpm overnight. The culture media used was 900 mL H2O; 10.4 g RPMI 1640 (with L-glutamine and a pH indicator but without bicarbonate); 34.5 g MOPS and 18 g glucose. The pH of the media was adjusted to 7.0 with 1 M sodium hydroxide.
(§2) Solutions of the compound to be tested were prepared by dissolving the compound in DMSO and subsequently into media to the desired concentrations. 200 μL of compound solution was then added to the wells of the 96-well plate using a serial dilution method row-by row of the plate to give a compound concentration gradient across the plate of from 128 μg/mL to 0.25 μg/mL. The last two rows of each plate were control rows containing the culture media alone and the media plus fungi.
(§3) The fungi starter cultures were diluted 1:10 in water in cuvettes. This was then further diluted to an optical density (OD600) of 0.01 in media. 100 μL of the fungi was added to each well giving a starting concentration of fungus of 0.5-5×10^5/mL. One species of fungus was used on each plate. The plates were then held at 37° C. for 24 hours.
(§4) A plate reader was used to measure growth in each well at OD530 nm and the MIC was determined for each test compound. The MIC is defined as the lowest concentration giving rise to inhibition of ≥50% of that of the drug-free control well containing the fungus and media.
(§5) The compound of Example 2 (which corresponds to compound number 2) was tested against a panel of Aspergillus strains using a method analogous to that described above for the Candida Panel.

[2] = system: Aspergillus carbonarius ATCC 8740; experiment: Aspergillus panel MIC; format: cell-based; details: Table 8
Method: as §1, §2, §3, §4, §5

[3] = system: Aspergillus fumigatus ATCC 1028; experiment: Aspergillus panel MIC; format: cell-based; details: Table 8
Method: as §1, §2, §3, §4, §5

[4] = system: Aspergillus fulavus ATCC 204304; experiment: Aspergillus panel MIC; format: cell-based; details: Table 8
Method: as §1, §2, §3, §4, §5

[5] = system: Aspergillus fumigatus ATCC 16424; experiment: Aspergillus panel MIC; format: cell-based; details: Table 8
Method: as §1, §2, §3, §4, §5

[6] = system: Aspergillus fumigatus ATCC 10894; experiment: Aspergillus panel MIC; format: cell-based; details: Table 8
Method: as §1, §2, §3, §4, §5

[7] = system: Aspergillus fumigatus ATCC 204305; experiment: Aspergillus panel MIC; format: cell-based; details: Table 8
Method: as §1, §2, §3, §4, §5

[8] = system: Aspergillus strains; experiment: Aspergillus panel MIC, statement on the whole panel; format: cell-based; details: Table 8, in words
Method: as §5

[9] = system: Candida auris TDG2512; experiment: Candida panel MIC, serial dilution in 96-well plates; format: cell-based; details: Candidozyma auris, TDG2512; Table 4, extended panel; 24 hours, ≥50% inhibition; read-out: MIC Candida auris TDG2512
Summary of the method: (§6)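 RPMI/MOPS/2% glucose pH 7.0; 2-fold series 128→0.25 μg/mL; inoculum 0.5-5×10^5/mL; 37 °C, 24 h; OD530 read; MIC at ≥50% growth inhibition vs drug-free control.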

[10] = system: Candida auris TDG1102; experiment: as above; format: cell-based; details: Candidozyma auris, read-out: MIC Candida auris TDG1102
Summary of the method: as §6

[11] = system: C. auris TDG1912; experiment: as above; format: cell-based; details: Candidozyma auris, TDG1912; Table 4; 24 hours, ≥50% inhibition; read-out: MIC C. auris TDG1912
Summary of the method: as §6

[12] = system: C. tropicalis NCPF8760; experiment: as above; format: cell-based
Summary of the method: as §6

[13] = system: panel of Candida species; experiment: Candida panel MIC, statements on the whole panel; format: cell-based; details: in words
Method: (§7) The minimum inhibitory concentration of test compounds were determined in a panel of Candida species (see Table 4 below), using the a serial dilution method in 96-well plates using the following protocol.
as §1, §2, §3, §4

[14] = system: C. parapsilosis NCPF3209; experiment: microbe, parasite or virus in culture; format: cell-based, Candida parapsilosis; details: Lodderomyces parapsilosis
Summary of the method: (§8)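 MIC taken as lowest concentration inhibiting growth ≥50% relative to drug-free control, from OD530 after 24 hours at 37° C. Fungi at 0.5-5×10^5/mL were exposed to serially diluted compound in RPMI 1640/MOPS/2% glucose medium adjusted to pH 7.0.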

[15] = system: Candida auris TDG2506; experiment: microbe, parasite or virus in culture; format: cell-based; details: Candidozyma auris, TDG2506; Table 4, extended panel; 24 hours, ≥50% inhibition; read-out: MIC Candida auris TDG2506
Summary of the method: (§9)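 Growth inhibition was scored by OD530 nm after a 24 h, 37° C incubation of C. auris (0.5-5×10^5/mL) with compound dilutions in buffered RPMI glucose medium.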

[16] = system: Candida auris TDG2211; experiment: microbe, parasite or virus in culture; format: cell-based; details: Candidozyma auris, TDG2211; Table 4, extended panel; 24 hours, ≥50% inhibition; read-out: MIC Candida auris TDG2211
Summary of the method: as §9

[17] = system: C. glabrata NCPF8018; experiment: Candida panel MIC, serial dilution in 96-well plates; format: cell-based, Candida glabrata; details: Nakaseomyces glabratus
Summary of the method: as §8

[18] = system: C. krusei NCPF3876; experiment: microbe, parasite or virus in culture; format: cell-based, Candida krusei; details: Pichia kudriavzevii
Summary of the method: as §8

[19] = system: C. albicans NCPF3281; experiment: Candida panel MIC, serial dilution in 96-well plates; format: cell-based, Candida albicans; details: NCPF3281, read-out: MIC C. albicans NCPF3281
Summary of the method: as §6

[20] = system: C. albicans 3880; experiment: Candida albicans panel MIC; format: cell-based; details: Table 6, Candida albicans panel
Method: as §7, §1, §2, §3, §4
(§10) The compounds shown in Table 6 were tested against a further panel of Candida albicans.

[21] = system: C. albicans 3363; experiment: Candida albicans panel MIC; format: cell-based; details: Table 6, Candida albicans panel
Method: as §7, §1, §2, §3, §4, §10

[22] = system: C. albicans 8112; experiment: Candida albicans panel MIC; format: cell-based; details: Table 6, Candida albicans panel
Method: as §7, §1, §2, §3, §4, §10

[23] = system: C. albicans 3881; experiment: Candida albicans panel MIC; format: cell-based; details: Table 6, Candida albicans panel
Method: as §7, §1, §2, §3, §4, §10

[24] = system: C. albicans 3645; experiment: Candida albicans panel MIC; format: cell-based; details: Table 6, Candida albicans panel
Method: as §7, §1, §2, §3, §4, §10

[25] = system: C. albicans 3990; experiment: Candida albicans panel MIC; format: cell-based; details: Table 6, Candida albicans panel
Method: as §7, §1, §2, §3, §4, §10

[26] = system: C. albicans 3882; experiment: Candida albicans panel MIC; format: cell-based; details: Table 6, Candida albicans panel
Method: as §7, §1, §2, §3, §4, §10

[27] = system: C. auris 8971; experiment: Candida panel MIC, serial dilution in 96-well plates; format: cell-based, Candida auris; details: Candidozyma auris, 8971; Table 4, extended panel; 24 hours, ≥50% inhibition; read-out: MIC C. auris 8971
Summary of the method: as §9

[28] = system: C. auris 8984; experiment: as above; format: cell-based, Candida auris; details: Candidozyma auris, 8984; Table 4, extended panel; 24 hours, ≥50% inhibition; read-out: MIC C. auris 8984
Summary of the method: as §9

[29] = system: C. auris 8977; experiment: as above; format: cell-based, Candida auris; details: Candidozyma auris, 8977; Table 4, extended panel; 24 hours, ≥50% inhibition; read-out: MIC C. auris 8977
Summary of the method: as §9

[30] = NCPF8760, Table 4, common panel, 24 hours, ≥50% inhibition, read-out: MIC C. tropicalis NCPF8760
[31] = NCPF3209, Table 4, common panel, 24 hours, ≥50% inhibition, read-out: MIC C. parapsilosis NCPF3209
[32] = NCPF8018, Table 4, common panel, 24 hours, ≥50% inhibition, read-out: MIC C. glabrata NCPF8018
[33] = NCPF3876, Table 4, common panel, 24 hours, ≥50% inhibition, read-out: MIC C. krusei NCPF3876
[34] = Candida albicans, Table 4, common panel, 24 hours, ≥50% inhibition

Structure (SMILES): N#Cc1ccc(-c2ccc(NC3CCN(CC(O)(Cn4cncn4)c4ccc(F)cc4F)CC3)cc2)cc1 (stereo not drawn) [Compound number 2, 4′-((1-(2-(2,4-difluorophenyl)-2-hydroxy-3-(1H-1,2,4-triazol-1-yl)propyl)piperidin-4-yl)amino)-[1,1′-biphenyl]-4-carbonitrile]
- Minimum inhibitory concentration Aspergillus fumigatus ATCC 13073 [1]: ≤0.125
- Minimum inhibitory concentration Aspergillus carbonarius ATCC 8740 [2]: 0.25
- Minimum inhibitory concentration Aspergillus fumigatus ATCC 1028 [3]: 0.25
- Minimum inhibitory concentration Aspergillus fulavus ATCC 204304 [4]: 0.5
- Minimum inhibitory concentration Aspergillus fumigatus ATCC 16424 [5]: ≤0.125
- Minimum inhibitory concentration Aspergillus fumigatus ATCC 10894 [6]: 0.25
- Minimum inhibitory concentration Aspergillus fumigatus ATCC 204305 [7]: ≤0.125

Structure (SMILES): N#Cc1ccc(-c2ccc(NC3CCN(CC(O)(Cn4cncn4)c4ccc(F)cc4F)CC3)cc2)cc1 (stereo not drawn) [Example 2, 4′-((1-(2-(2,4-difluorophenyl)-2-hydroxy-3-(1H-1,2,4-triazol-1-yl)propyl)piperidin-4-yl)amino)-[1,1′-biphenyl]-4-carbonitrile]
- Effectiveness against the Aspergillus strains tested compared to fluconazole [8]: highly effective
- MIC [9]: ≤ 3 ng/mL
- MIC ([10]; TDG1102, 24 h): 3 to 500 ng/mL (≈ 0.00583 to 0.972 µM)
- MIC [11]: 30 ng/mL (≈ 0.0583 µM)
- MIC [12, 30]: 3 to 250 ng/mL (≈ 0.00583 to 0.486 µM)
- Activity against Candida auris including resistant strains [13]: highly active
- MIC [14, 31]: ≤ 3 ng/mL
- MIC [15]: 3 to 150 ng/mL (≈ 0.00583 to 0.291 µM)
- MIC [16]: 250 ng/mL (≈ 0.486 µM)
- MIC [17, 32]: 125 ng/mL (≈ 0.243 µM)
- MIC [18, 33]: 3 to 125 ng/mL (≈ 0.00583 to 0.243 µM)
- MIC [19, 34]: ≤ 3.9 ng/mL
- MIC ([19]; Table 6, Candida albicans panel): ≤ 3.9 ng/mL
- MIC [20]: 7.81 ng/mL (≈ 0.0152 µM)
- MIC [21]: 7.81 to 125 ng/mL (≈ 0.0152 to 0.243 µM)
- MIC [22]: 1.95 to 7.81 ng/mL (≈ 0.00379 to 0.0152 µM)
- MIC [23]: 15.6 ng/mL (≈ 0.0303 µM)
- MIC [24]: 3.91 ng/mL (≈ 0.0076 µM)
- MIC [25]: 15.6 ng/mL (≈ 0.0303 µM)
- MIC [26]: 31.3 ng/mL (≈ 0.0608 µM)

Structure (SMILES): Cc1ccc(-c2ccc(NC3CCN(CC(O)(Cn4cncn4)c4ccc(F)cc4F)CC3)cc2)cc1 (stereo not drawn) [Example 3, 2-(2,4-Difluorophenyl)-1-(4-((4′-methyl-[1,1′-biphenyl]-4-yl)amino)piperidin-1-yl)-3-(1H-1,2,4-triazol-1-yl)propan-2-ol]
- MIC [9]: ≤ 3 ng/mL
- MIC ([10]; TDG1102, Table 4, extended panel, 24 hours, ≥50% inhibition): ≤ 3 ng/mL
- MIC [11]: 8 to 60 ng/mL (≈ 0.0159 to 0.119 µM)
- MIC [12, 30]: 15 ng/mL (≈ 0.0298 µM)
- MIC ([12]; NCPF8760, read-out: MIC C. Tropicalis NCPF8760): 15 ng/mL (≈ 0.0298 µM)
- Activity against Candida auris including resistant strains [13]: highly active
- MIC ([14]; NCPF3209, read-out: MIC C. Parapsilosis NCPF3209): 4 ng/mL (≈ 0.00794 µM)
- MIC [14, 31]: 4 ng/mL (≈ 0.00794 µM)
- MIC [15]: 6 ng/mL (≈ 0.0119 µM)
- MIC [16]: 6 ng/mL (≈ 0.0119 µM)
- MIC ([17]; NCPF8018, read-out: MIC C. Glabrata NCPF8018): 125 ng/mL (≈ 0.248 µM)
- MIC [17, 32]: 125 ng/mL (≈ 0.248 µM)
- MIC ([18]; NCPF3876, read-out: MIC C. Krusei NCPF3876): 4 to 16 ng/mL (≈ 0.00794 to 0.0318 µM)
- MIC [18, 33]: 4 to 16 ng/mL (≈ 0.00794 to 0.0318 µM)
- MIC [19, 34]: ≤ 0.98 ng/mL
- MIC [27]: 6 ng/mL (≈ 0.0119 µM)
- MIC [28]: 6 ng/mL (≈ 0.0119 µM)
- MIC [29]: 6 ng/mL (≈ 0.0119 µM)
